Data on one compound can be found in US7105173B1, “Nicotine replacement applique” (priority 2002, dated 2006).

For data set [1] the following is noted: cited from earlier work.

For `CN1CCCC1c1cccnc1` (centres unmarked) [nicotine], the “LD50 oral level expressed as total amount for a small infant” value is listed as “about 250 mg”. In addition, in data set [1], the LD50 oral level entry is given as “approximately 55 milligrams per Kilogram of body weight”.
